Source: patent US20070213402A1, “Compounds which interact with the thyroid hormone receptor for the treatment of fibrotic disease” (priority 1998, published 2007)

Experiments:
[1] = tested on: collagenase I promoter; test: Experiment 1: collagenase I promoter (-73/+63)-luciferase in CV1 cells, no receptor plasmid (Empty); assay type: cell-based, African Green Monkey; conditions: for Raw counts (Empty) / % control (Empty): no receptor; for % control (Empty): Blank = 100
Source text: (§1) Two plasmid constructs were introduced by standard calcium phosphate precipitation of DNA followed by glycerol shock (Ausubel F M, Brent R, Kingston D D, Moore J G et al Current protocols in molecular biology 1994 Greene Publishing Associates/Wiley-Interscience, New York, N.Y.) using a transformed African Green Monkey kidney cell line (CV1) (Schneikert J, Peterziel H, Defossez P-A, Klocker H, de Launoit Y and Cato A C B Androgen receptor-Ets protein interaction is a novel mechanism for steroid hormone-mediated down-modulation of matrix metalloproteinase expression, Journal of Biological Chemistry. Vol 271(39) (pp 23907-23913), 1996).
(§2) Accordingly, the following two plasmids were included into CV1 cells described above — • (a) Either of GR1 or pSG5ARF containing glucocorticoid or androgen receptor (AR) respectively, both at 2 ug per 5×10^5 cells, driven by the Rous sarcoma virus promoter, and • (b) a plasmid containing the −73/+63 portion of the collagenase I promoter linked to luciferase gene at 8 ug per 5×10^5 cells.
(§3) CPII was compound II above, clobuzarit.

[2] = tested on: collagenase I promoter; test: Experiment 1: collagenase I promoter (-73/+63)-luciferase in CV1 cells transfected with GR1 (glucocorticoid receptor); assay type: cell-based, African Green Monkey; conditions: for % control (GR1): Blank = 100
Source text: as §1, §2, §3

[3] = tested on: NFκB; test: Experiment 3: NFκB-driven 3-EnhTK-Luc reporter in CV1 cells with GR1; assay type: cell-based, African Green Monkey; conditions: for % Control: Blank = 100
Source text: as §1
This experiment was intended to show the effect of compounds I on a mediator of the immune response, nuclear factor—κB (NF-κB).
The following two plasmids were included into CV1 cells described above— • (a) GR1 as described above at 2 ug per 5×10^5 cells, and • (b) a plasmid designated 3-EnhTK-Luc (at 0.5 ug per 5×10^5 cells) which contains a transcription site that is activated by NFκB.
The blank represented the inclusion of these two plasmids alone; the relatively high value was caused by (i) the high level of serum in the culture, and (ii) the associated stress that the cells underwent during the […]—both of which upregulate NFκB. There was also a related relatively low activation of TNF (at 4 ng/ml) above a serum containing blank in the experiment. TNF was tumour necrosis factor alpha.

[4] = tested on: collagenase (MMP-1) promoter; test: Experiment 4.1: collagenase (MMP-1) promoter (-517/+63)-luciferase in MCF-7 cells, endogenous thyroid hormone receptors; assay type: cell-based, human; conditions: MCF-7, endogenous thyroid hormone receptors; for % Control: Blank = 100
Procedure: (§4) These experiments were intended to identify the receptor through which compounds I might be acting to block collagenase promoter activity.
(§5) Transfection procedure hereinbefore described with CV1 cells was repeated using MCF-7 mammary breast cancer cells derived from pleural effusion from a breast cancer patient. Additionally, each experiment included transfection of a plasmid (at 8 ug per 5×10^5 cells) containing the −517/+63 section of the collagenase (MMP-1) promoter linked to the luciferase gene. TPA was used as above to stimulate activity of the collagenase promoter resulting in luciferase production. Compound II or 3,3,5-triiodo-L-thyronine (T3) was included (both at 10^−8M), the latter being a known ligand for the thyroid hormone receptor.
Experiment 4.1. As MCF-7 cells express endogenous thyroid hormone receptors, only the collagenase promoter plasmid (at 8 ug per 5×10^5 cells) was transfected into the MCF-7 cells.

[5] = tested on: collagenase (MMP-1) promoter; test: Experiment 4.2: collagenase (MMP-1) promoter-luciferase in MCF-7 cells with antisense construct for the thyroid receptor; assay type: cell-based, human; conditions: MCF-7 + thyroid receptor antisense; for % Control: Blank = 100
Procedure: as §4, §5
Experiment 4.2. The procedure of Experiment 4.1 was repeated except that a second plasmid, containing 662 bp antisense construct for the thyroid receptor (at 8 ug per 5×10^5 cells) was additionally transfected.

[6] = tested on: collagenase (MMP-1) promoter; test: Experiment 4.3: collagenase (MMP-1) promoter-luciferase in MCF-7 cells with transfected chick thyroid hormone receptor; assay type: cell-based, human; conditions: MCF-7 + chick thyroid hormone receptor; for % Control: Blank = 100
Procedure: as §4, §5

[7] = substance added with TPA 75 ng/ml
[8] = substance added with TPA 75 ng/ml, Dex 10^-7M
[9] = substance added alone, TNF 4 ng/ml
[10] = substance added with TNF 4 ng/ml
[11] = substance 10^-8M added with TPA
[12] = substance added alone, CPII 10^-8M

Q: `CC(C)(OCc1ccc(-c2ccc(Cl)cc2)cc1)C(=O)O` [Compound II, 1-[4-(4-chlorophenyl)benzyloxy]-1-methylpropionic acid] was tested. Which “collagenase I (MMP) promoter activity in the absence of either receptor, in words” value ([1]; TPA stimulated and unstimulated, Empty) did it give?
A: able to reduce the level

Q: What about the “Raw counts (Empty)” value ([1]; luciferase, substance added alone, TPA 75 ng/ml) of the same compound?
A: 1882 counts

Q: And the “% control (Empty)” value ([1]; substance added alone)?
A: 78%

Q: What about the “Raw counts (Empty)” value [1, 7] of the same compound?
A: 2747 counts

Q: What about the “% control (Empty)” value [1, 7] of the same compound?
A: 115%

Q: And the “% control (GR1)” value ([2]; substance added alone)?
A: 48%

Q: What about the “Raw counts (GR1)” value ([2]; substance added alone, TPA 75 ng/ml) of the same compound?
A: 6151 counts

Q: And the “Raw counts (GR1)” value [2, 8]?
A: 39968 counts

Q: What about the “% control (GR1)” value [2, 8] of the same compound?
A: 311%

Q: What about the “collagenase I activation, in words (GR1)” value ([2]; TPA-stimulated, glucocorticoid receptor) of the same compound?
A: able to down regulate collagenase I activation

Q: And the Raw Counts [3, 9]?
A: 75812 counts

Q: And the “% Control” value [3, 9]?
A: 127%

Q: And the Raw Counts [3, 10]?
A: 135886 counts

Q: And the “% Control” value [3, 10]?
A: 228%

Q: What about the “upregulation of transcriptional activity by NFκB, in words” value ([3]; versus background value) of the same compound?
A: not able to upregulate transcriptional activity by NFκB

Q: What about the “inhibitory effect on NFκB transcription, in words” value ([3]; with TNF) of the same compound?
A: lack of inhibitory effect

Q: What about the “effect on TPA stimulation of luciferase production, in words” value [4] of the same compound?
A: able further to enhance TPA stimulation of luciferase production

Q: What about the “Raw Counts” value [4, 11] of the same compound?
A: 352376 counts

Q: And the “% Control” value [4, 11]?
A: 2802.2%

Q: And the “% Control” value ([4]; substance added alone)?
A: 47.9%

Q: What about the “Raw Counts” value [4, 12] of the same compound?
A: 6029 counts

Q: What about the “luciferase production when thyroid hormone receptor synthesis is inhibited, in words” value [5] of the same compound?
A: substantially prevented

Q: And the “Raw Counts” value [5, 11]?
A: 8716 counts

Q: And the “% Control” value [5, 11]?
A: 597.8%

Q: And the “% Control” value ([5]; substance added alone)?
A: 163.2%

Q: What about the “Raw Counts” value [5, 12] of the same compound?
A: 2379 counts

Q: And the “stimulated collagenase transcription, in words” value ([6]; TPA)?
A: able to reduce stimulated collagenase transcription

Q: What about the “Raw Counts” value [6, 11] of the same compound?
A: 4414 counts

Q: What about the “% Control” value [6, 11] of the same compound?
A: 202%

Q: What about the “% Control” value ([6]; substance added alone) of the same compound?
A: 72%

Q: And the “Raw Counts” value [6, 12]?
A: 1572 counts
